# Assay results as given in patent US12377069B2, “Compounds, compositions, methods of using, and methods for preparing compounds” (UNIVERSITY OF LOUISVILLE RESEARCH FOUNDATION, INC., priority 2018, dated 2025).
# What was measured:
# Cyp1A1 = Cyp1A1 enzyme activity in colon and liver microsomes of treated mice; assay type: in vivo, mouse; conditions: 1 week; for Cyp1A1 activity in colon tissues compared to BNF and FICZ treated mice: UroA/UAS03 oral 20 mg/kg/day, FICZ i.p.; for Cyp1A1 activity increase in colons: i.p., UroA/UAS03 5 mg/kg/day, FICZ 1 μg/mouse/day; for Cyp1A1 activity in colon and liver, AhR^−/− mice / Cyp1A1 activity in colon and liver, wild type mice: oral 20 mg/kg, EROD
# Procedure: Measurements of Cyp1A1 enzyme activity (Ex vivo): Mice were treated with Vehicle or UroA or UAS03, BNF or FICZ daily for one week at indicated concentration either through oral or i.p. route. After one week, mice were euthanized and the colon and liver tissues were dissected. Microsomes from these tissues were prepared using the following procedure (SINGH et al., (2013) “Evaluation of memory enhancing clinically available standardized extract of Bacopa monniera on P-glycoprotein and cytochrome P450 3A in Sprague-Dawley rats” PloS one, Vol. 8, Article e72517). For hepatic microsomes, liver was first perfused with 0.9% sodium chloride solution and excised out. Adhering blood and saline was removed by blotting on tissue paper and tissue was homogenized in tissue homogenization buffer (50 mM Tris-HCl, pH 7.4 with 250 mM sucrose). Homogenate was centrifuged at 10,000×g for 30 minutes at 4° C. supernatant obtained was further centrifuged at 105,000×g for 60 minutes at 4° C. The pellet was washed with homogenization buffer and centrifuged again at 105,000×g for 60 minutes at 4° C. The pellet was suspended in homogenization buffer and used for protein and CYP assay. For intestinal microsome preparation, intestine was removed and washed with 0.9% sodium chloride. The intestine was longitudinally cut open to expose mucosal layer and mucosa was scrapped with help of glass slide. The scraped tissue was collected in homogenization buffer (50 mM Tris-HCl buffer containing glycerol (20% v/v), protease inhibitor (1%) and heparin (3 U/ml)). This suspended mucosa was homogenized and centrifuged at 10,000×g for 20 minutes at 4° C. Supernatant obtained was further centrifuged at 105,000×g for 60 minutes at 4° C. The pellet was washed with buffer and centrifuged again at 105,000×g for 60 minutes at 4° C. The pellet was suspended homogenization buffer and used for protein and CYP enzymes assays.
# Ethoxyresorufin-O-deethylase (EROD) assay: The microsomal proteins (0.5 mg) were mixed with 200 μL Tris buffer (0.1 M, pH 7.4) containing ethoxyresorufin (0.01 mM). To start reaction, NADPH (0.1 mM) was added and incubated at 37° C. for 10 min. After 10 min, reaction was terminated by adding equal volume of acetonitrile and reaction mixture was centrifuged at 13000×g for 10 min at 4° C. Supernatant was used to determine resorufin by measuring fluorescence (Ex. 530 nm, Em. 580 nm). Pure resorufin (Sigma Aldrich) was used to generate standard curve.
# P450-Glo Cyp1A1 luminiscence assay: The above microsomes (20 μg) were used for P450-Glo Cyp1A1 luminiscence assays as per manufacturer's instructions.
# Caco2 or HT29 cells = test: In vitro FITC-dextran permeability assay; assay type: cell-based, human; conditions: pretreatment 50 μM 24 h; LPS 50 ng/ml 2 h
# Procedure: In vitro permeability study: For in vitro cellular permeability studies, Caco2 cells or HT29 cells (2×10^4 cells/cm^2) were seeded in 24-well Transwell® plates (Cornings; USA), on polyester membrane filters (pore size 0.4 μm, surface area 1.12 cm^2) (KOWAPRADIT et al. (2010) “In vitro permeability enhancement in intestinal epithelial cells (Caco-2) monolayer of water soluble quaternary ammonium chitosan derivatives” Aaps Pharmscitech, Vol. 11, pp. 497-508). Culture medium was added to both apical and basal chamber and the medium was changed every other day up to 21 days for Caco2 cells or 5-7 days for HT29 cells. For Caco2 cells, transepethelial electrical resistance (TEER) was calculated using EMD Millipore Millicell-ERS2 Volt-Ohm Meter (Millipore). Filters (with cell monolayer) showing more than 600 Ω·cm^2 were used for permeability study. After cells reach desired confluence (monolayered cells), cells were pre-treated with vehicle (0.01% DMSO) UroA (50 μM) and UAS03 […] for 24 hours. After treatment, monolayer was washed with PBS to remove any residual drug and 200 μL of LPS (50 ng/ml in HBSS) was added to each well and incubated for 2 hours. […] After 2 h, a sample from the basal chamber was withdrawn and FD4 concentration was determined using fluorescence 96-wells plate reader at excitation and emission wavelengths were 480 and 525 nm, respectively.
# Nrf2 = Nrf2 reporter (ARE-luciferase) assay; assay type: cell-based, human; conditions: HT29, 50 μM, 24 h
# Procedure: Nrf2-Reporter assay: ARE-luciferase plasmid vector was obtained from Cayman Chemicals. HT29 cells were transfected at 50% confluency using lipofectamine 3000 reagent (ThermoFisher Scientific). Briefly, cells were seeded in 6-well plates (0.5×10^6 cells) and grown for 24 h. The transfection complex containing 1 μg of plasmid DNA and transfection reagent was added to each well in absence of FBS. After 6 hr medium containing 10% FBS was added and cells were incubated for another 16-18 hr. These cells were treated with vehicle (0.01% DMSO) or UroA (50 μM) or UAS03 (50 μM) or sulforaphane (10 μM) for 24 h. After incubation with inducers, cells were lysed and firefly luciferase activities (luminiscence) were measured with Luciferase Assay System (Promega) using multiwell plate luminometer (BMG, LABTECH).
Structure (SMILES),Cyp1A1 activity in colon tissues compared to BNF and FICZ treated mice (Cyp1A1),Cyp1A1 activity increase in colons (Cyp1A1) [fold],"Cyp1A1 activity in colon and liver, AhR^−/− mice (Cyp1A1)","Cyp1A1 activity in colon and liver, wild type mice (Cyp1A1)",LPS induced leakage of FITC-dextran into bottom chambers (Caco2 or HT29 cells),ARE-luciferase luminescence (Nrf2)
"Oc1ccc2c(c1)COc1cc(O)ccc1-2 [UAS03, 6H-benzo[c]chromene-3,8-diol]",relatively more Cyp1A1 activity in colon tissues,~3,but not in AhR^−/− mice,activated Cyp1A1 activity,inhibited LPS induced leakage,enhanced luminescence
"O=c1oc2cc(O)ccc2c2ccc(O)cc12 [UroA, 3,8-dihydroxy-6H-dibenzo[b,d]pyran-6-one]",relatively more Cyp1A1 activity in colon tissues,~3,but not in AhR^−/− mice,activated Cyp1A1 activity,inhibited LPS induced leakage,enhanced luminescence
